Measured values: the NIST ThermoML archive (doi:10.1021/je200146j)
Numbers after ± are expanded uncertainties.

Assay: mn = molality of the nth substance listed, in mol/kg
Conditions: 101 kPa, Liquid, m1 = 0.512; for speed of sound: Sing-around technique in a fixed-path interferometer; for mass density: Vibrating tube method

`O=[N+]([O-])[O-].[K+]` [potassium nitrate] + O showed a speed of sound (298.15 K) of 1517.8 ± 4.1 m/s, a mass density (298.15 K) of 1027.98 ± 1 kg/m3 and a speed of sound (303.15 K) of 1526.8 ± 4.1 m/s. It also gave a mass density (303.15 K) of 1026.22 ± 1 kg/m3, a speed of sound (308.15 K) of 1536.3 ± 4.1 m/s and a mass density (308.15 K) of 1024.1 ± 1 kg/m3. It also gave a speed of sound (313.15 K) of 1544.4 ± 4.1 m/s, a mass density (313.15 K) of 1022.05 ± 1 kg/m3 and a speed of sound (318.15 K) of 1551.1 ± 4.1 m/s. For the same molecule, the mass density (318.15 K) was 1020.2 ± 1 kg/m3, the speed of sound (323.15 K) was 1556.6 ± 4.1 m/s and the mass density (323.15 K) was 1018.2 ± 1 kg/m3.
With `O=S(=O)([O-])[O-].[K+].[K+]` [potassium sulfate] + O the speed of sound (298.15 K) was 1563.6 ± 4.1 m/s, the mass density (298.15 K) was 1063.81 ± 1 kg/m3 and the speed of sound (303.15 K) was 1571.6 ± 4.1 m/s. The mass density (303.15 K) was 1062.02 ± 1 kg/m3, the speed of sound (308.15 K) was 1580.3 ± 4.1 m/s and the mass density (308.15 K) was 1060.06 ± 1 kg/m3. For the same molecule, the speed of sound (313.15 K) was 1587.6 ± 4.1 m/s, the mass density (313.15 K) was 1057.74 ± 1 kg/m3 and the speed of sound (318.15 K) was 1593.5 ± 4.1 m/s. For the same molecule, the mass density (318.15 K) was 1055.14 ± 1 kg/m3, the speed of sound (323.15 K) was 1598.3 ± 4.1 m/s and the mass density (323.15 K) was 1052.95 ± 1 kg/m3.
